Here are results for four molecules from ChEMBL document CHEMBL1201862, “PubChem BioAssay data set” (2004).

The source made the active and inactive calls.

Assay [1] deals with Botulinum neurotoxin type F (Clostridium botulinum, UniProt P30996). Kind of assay: High-throughput multiplex microsphere dose response for inhibitors of toxin protease, specifically Botulinum neurotoxin light chain F protease, compounds from Cherry Pick 02. The format is functional. Conditions: read-out: EC50_MICROM.
Assay [2] addresses Botulinum neurotoxin type A (Clostridium botulinum (strain Hall / ATCC 3502 / NCTC 13319 / Type A), UniProt P0DPI1). Kind of assay: High-throughput multiplex microsphere dose response for inhibitors of toxin protease, specifically Botulinum neurotoxin light chain A protease, compounds from Cherry Pick 02. Format: functional. As to conditions: read-out: EC50_MICROM.
The target of assay [3] is T1, Apoptotic protease-activating factor 1 (Homo sapiens, UniProt O14727).
T1 sequence (O14727 whole entry): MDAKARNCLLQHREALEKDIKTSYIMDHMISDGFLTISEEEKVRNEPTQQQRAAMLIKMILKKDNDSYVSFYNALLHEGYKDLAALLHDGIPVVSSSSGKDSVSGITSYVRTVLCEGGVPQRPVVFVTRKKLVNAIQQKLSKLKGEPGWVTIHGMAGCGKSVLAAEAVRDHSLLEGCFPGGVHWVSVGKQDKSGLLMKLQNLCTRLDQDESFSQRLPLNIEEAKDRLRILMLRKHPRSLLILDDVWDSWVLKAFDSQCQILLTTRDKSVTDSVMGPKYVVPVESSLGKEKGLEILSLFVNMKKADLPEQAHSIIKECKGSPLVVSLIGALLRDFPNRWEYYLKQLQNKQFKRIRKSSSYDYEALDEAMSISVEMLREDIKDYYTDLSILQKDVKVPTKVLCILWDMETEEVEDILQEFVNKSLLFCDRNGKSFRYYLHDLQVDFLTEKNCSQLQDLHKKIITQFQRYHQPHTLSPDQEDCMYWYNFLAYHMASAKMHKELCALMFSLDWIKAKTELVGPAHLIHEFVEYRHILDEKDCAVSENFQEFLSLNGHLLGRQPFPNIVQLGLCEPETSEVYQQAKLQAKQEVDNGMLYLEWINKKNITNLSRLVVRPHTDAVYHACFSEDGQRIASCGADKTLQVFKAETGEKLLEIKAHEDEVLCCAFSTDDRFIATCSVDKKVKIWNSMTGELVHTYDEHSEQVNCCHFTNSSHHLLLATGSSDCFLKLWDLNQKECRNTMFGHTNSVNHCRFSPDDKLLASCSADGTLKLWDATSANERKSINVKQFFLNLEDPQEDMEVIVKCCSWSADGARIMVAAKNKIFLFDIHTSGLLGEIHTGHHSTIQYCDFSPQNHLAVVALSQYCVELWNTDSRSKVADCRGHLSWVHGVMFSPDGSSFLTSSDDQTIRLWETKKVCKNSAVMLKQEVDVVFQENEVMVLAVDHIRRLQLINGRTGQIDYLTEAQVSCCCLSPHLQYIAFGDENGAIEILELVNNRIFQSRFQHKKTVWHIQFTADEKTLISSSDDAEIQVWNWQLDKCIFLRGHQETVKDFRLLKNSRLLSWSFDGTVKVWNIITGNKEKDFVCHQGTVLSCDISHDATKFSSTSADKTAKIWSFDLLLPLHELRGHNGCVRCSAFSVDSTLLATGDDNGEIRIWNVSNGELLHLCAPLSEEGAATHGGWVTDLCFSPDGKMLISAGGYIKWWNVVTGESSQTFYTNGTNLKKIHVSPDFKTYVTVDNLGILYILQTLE
Kind of assay: SAR analysis of small molecule inhibitors of Apaf-1 in a Fluorescent assay. Format: functional. Conditions: read-out: IC50_Mean.

For assay [4], the target named is Heat shock protein HSP 90-alpha (Homo sapiens, UniProt P07900). Format: functional, organism-based.
Assay [5] deals with T2, High affinity choline transporter 1 (Homo sapiens, UniProt Q9GZV3).
T2 sequence (Q9GZV3 whole entry): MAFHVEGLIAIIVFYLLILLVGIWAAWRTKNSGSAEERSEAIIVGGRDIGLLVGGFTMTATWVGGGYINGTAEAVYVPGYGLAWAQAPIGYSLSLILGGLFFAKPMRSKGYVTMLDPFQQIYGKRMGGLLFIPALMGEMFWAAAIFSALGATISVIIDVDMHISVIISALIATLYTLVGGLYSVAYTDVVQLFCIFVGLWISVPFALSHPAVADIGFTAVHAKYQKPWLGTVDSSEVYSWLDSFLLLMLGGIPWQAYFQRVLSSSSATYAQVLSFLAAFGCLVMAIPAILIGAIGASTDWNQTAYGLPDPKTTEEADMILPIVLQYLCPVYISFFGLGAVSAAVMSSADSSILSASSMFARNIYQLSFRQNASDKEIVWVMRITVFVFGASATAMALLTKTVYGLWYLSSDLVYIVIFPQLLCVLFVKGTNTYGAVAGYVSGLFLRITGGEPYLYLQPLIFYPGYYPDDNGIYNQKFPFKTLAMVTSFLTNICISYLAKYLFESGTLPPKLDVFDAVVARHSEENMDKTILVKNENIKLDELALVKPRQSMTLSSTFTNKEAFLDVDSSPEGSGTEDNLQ
Nature of the assay: CHT inhibitors, dose response, cell-based, 10-point CRC, membrane potential dye (AID 588401).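 Further: membrane potential dye fluorescence of choline-evoked depolarization via CHT.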 The format is functional.

In assay [6] the target is T2, High affinity choline transporter 1. Kind of assay: CHT inhibitors, dose response, cell-based, 5-point CRC, membrane potential dye (AID 504840). Format: functional.
In assay [7] the test system is H9c2. Kind of assay: cells. Format: functional, cell-based. As to conditions: Rattus norvegicus, H9c2, Myocardium.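 Further: confirmatory concentration-response retest of ultra-high-throughput screening hits for modulation of myocardial damage; cell death induced by hydrogen peroxide oxidative stress; compound pretreatment for 60 min then peroxide exposure for 2 h; potency is for protecting the cells against peroxide damage rather than for killing them.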
The target of assay [8] is Cyclin-dependent kinase 19 (Homo sapiens, UniProt Q9BWU1). Nature of the assay: Navigating the Kinome. Panel member name: CDC2L6. Format: functional.
Sequence of Cyclin-dependent kinase 19 (Q9BWU1 whole entry): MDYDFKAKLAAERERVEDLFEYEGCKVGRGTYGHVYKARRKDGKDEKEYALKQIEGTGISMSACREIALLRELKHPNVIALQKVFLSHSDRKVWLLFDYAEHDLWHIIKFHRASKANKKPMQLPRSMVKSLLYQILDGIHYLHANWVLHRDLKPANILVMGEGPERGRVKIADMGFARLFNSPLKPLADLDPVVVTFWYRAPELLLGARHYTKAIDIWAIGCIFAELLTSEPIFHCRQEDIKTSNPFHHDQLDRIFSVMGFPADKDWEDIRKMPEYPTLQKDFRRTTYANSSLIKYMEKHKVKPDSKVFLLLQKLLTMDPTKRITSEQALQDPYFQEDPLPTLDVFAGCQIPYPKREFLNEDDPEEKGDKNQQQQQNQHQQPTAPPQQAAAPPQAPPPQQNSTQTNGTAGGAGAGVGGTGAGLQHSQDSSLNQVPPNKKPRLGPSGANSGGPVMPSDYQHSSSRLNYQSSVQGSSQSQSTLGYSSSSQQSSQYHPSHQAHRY
Assay [9] concerns the target ALK tyrosine kinase receptor (Homo sapiens, UniProt Q9UM73). The format is functional.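 Further: ALK tested as one member of a kinase panel screen.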

Sequence of Botulinum neurotoxin type A (P0DPI1 2-448 limits assumed): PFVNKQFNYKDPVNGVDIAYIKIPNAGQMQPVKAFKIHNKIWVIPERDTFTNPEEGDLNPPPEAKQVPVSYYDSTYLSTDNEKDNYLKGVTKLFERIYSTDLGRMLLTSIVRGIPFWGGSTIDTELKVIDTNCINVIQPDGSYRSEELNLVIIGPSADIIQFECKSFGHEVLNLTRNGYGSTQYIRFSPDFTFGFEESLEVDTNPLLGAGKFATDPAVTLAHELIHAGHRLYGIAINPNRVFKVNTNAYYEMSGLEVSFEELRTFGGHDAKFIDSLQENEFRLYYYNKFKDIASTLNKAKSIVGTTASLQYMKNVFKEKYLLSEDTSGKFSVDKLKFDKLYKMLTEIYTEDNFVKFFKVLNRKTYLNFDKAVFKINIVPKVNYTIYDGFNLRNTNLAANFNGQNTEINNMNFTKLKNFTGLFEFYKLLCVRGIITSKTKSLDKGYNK
Sequence of ALK tyrosine kinase receptor (Q9UM73 whole entry): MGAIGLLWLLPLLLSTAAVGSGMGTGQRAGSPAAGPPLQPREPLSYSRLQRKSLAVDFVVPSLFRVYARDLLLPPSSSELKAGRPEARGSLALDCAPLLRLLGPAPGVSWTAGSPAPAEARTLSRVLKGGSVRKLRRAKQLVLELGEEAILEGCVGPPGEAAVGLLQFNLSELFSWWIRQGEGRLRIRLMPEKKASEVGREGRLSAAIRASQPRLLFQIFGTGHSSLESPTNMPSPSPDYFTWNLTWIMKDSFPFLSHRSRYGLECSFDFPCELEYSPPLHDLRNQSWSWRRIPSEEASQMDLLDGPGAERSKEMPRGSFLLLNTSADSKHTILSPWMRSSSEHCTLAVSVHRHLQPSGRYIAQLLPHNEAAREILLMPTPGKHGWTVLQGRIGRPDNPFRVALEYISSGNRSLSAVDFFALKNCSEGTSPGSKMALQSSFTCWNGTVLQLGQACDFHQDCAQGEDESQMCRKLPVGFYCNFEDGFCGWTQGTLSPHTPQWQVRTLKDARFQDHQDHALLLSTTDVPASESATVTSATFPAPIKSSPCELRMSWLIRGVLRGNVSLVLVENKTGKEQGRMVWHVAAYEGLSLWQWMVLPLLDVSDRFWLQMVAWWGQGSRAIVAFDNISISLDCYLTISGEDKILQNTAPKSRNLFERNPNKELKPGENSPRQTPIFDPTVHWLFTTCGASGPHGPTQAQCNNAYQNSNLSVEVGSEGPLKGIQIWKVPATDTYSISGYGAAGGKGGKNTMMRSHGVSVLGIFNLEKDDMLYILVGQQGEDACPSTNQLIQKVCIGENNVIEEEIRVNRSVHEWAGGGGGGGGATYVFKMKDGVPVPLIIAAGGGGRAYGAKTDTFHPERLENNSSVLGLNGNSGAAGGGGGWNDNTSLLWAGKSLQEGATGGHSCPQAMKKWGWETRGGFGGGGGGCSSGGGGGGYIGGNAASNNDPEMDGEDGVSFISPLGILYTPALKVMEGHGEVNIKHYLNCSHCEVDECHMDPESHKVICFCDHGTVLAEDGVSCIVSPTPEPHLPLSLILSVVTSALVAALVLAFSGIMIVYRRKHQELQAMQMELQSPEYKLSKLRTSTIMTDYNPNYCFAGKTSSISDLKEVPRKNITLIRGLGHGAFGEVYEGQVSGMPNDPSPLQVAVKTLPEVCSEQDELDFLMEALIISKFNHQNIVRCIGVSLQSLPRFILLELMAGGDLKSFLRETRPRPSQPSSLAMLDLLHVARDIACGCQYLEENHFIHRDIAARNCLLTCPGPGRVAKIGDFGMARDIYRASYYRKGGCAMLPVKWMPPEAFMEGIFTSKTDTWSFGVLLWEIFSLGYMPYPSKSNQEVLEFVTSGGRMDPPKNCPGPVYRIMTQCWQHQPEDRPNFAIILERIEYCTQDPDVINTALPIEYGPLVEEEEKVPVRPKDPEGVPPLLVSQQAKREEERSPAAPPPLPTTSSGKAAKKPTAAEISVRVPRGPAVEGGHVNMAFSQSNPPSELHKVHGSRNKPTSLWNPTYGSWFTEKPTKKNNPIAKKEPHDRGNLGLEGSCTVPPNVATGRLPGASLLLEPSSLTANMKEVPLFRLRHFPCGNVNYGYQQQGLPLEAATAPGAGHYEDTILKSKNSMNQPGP
Sequence of Botulinum neurotoxin type F (P30996 1-436 limits assumed): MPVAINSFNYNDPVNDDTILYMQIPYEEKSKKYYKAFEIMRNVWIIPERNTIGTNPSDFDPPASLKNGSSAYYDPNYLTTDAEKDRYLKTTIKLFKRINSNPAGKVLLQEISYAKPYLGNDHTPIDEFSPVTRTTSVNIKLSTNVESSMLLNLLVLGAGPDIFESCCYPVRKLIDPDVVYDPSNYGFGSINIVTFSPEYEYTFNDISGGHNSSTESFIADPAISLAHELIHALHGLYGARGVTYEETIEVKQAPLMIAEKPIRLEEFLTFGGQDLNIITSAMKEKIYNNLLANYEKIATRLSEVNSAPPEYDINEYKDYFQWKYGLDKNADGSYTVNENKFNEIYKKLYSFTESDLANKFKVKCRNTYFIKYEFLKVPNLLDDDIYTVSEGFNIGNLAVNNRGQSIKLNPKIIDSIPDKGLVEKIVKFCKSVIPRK

As for `O=C(Cc1ccccc1)c1ccccn1`, the EC50 in [1] is > 20 µM (inactive); in [2], 8.6 µM (active).

For the molecule `Cc1cc(NC(=O)C2CC2)sc1C(=O)Nc1ccc2[nH]c(-c3cc(F)ccc3F)nc2c1`, the IC50 in [3] is 42.4 µM (active).

One may read the AC50 as the concentration at which the activity in the assay is half-maximal. In the case of `Oc1c(Br)cc(Br)cc1/C=N/Cc1ccccc1`, the AC50 in [4] is 5.31 µM (active). In addition, the IC50 is 3.16 µM (active) in assay [5], 9.73 µM (active) in [6] and > 79 µM (inactive) in assay [7].

As a reminder, the Ki is a measure of affinity in units of concentration, obtained from inhibition or displacement. On to `Cn1cc(Nc2ncc(Br)c(Nc3ccccc3S(C)(=O)=O)n2)cn1`, for which the Ki in assay [8] was > 100 µM (inactive); in assay [9] it was 2.51 µM (active).
